How the values were obtained:
Assay type in all cases: in vivo
[1] = tested on: Orchid Thrips (Dichromothrips corbetti); assay: Orchid thrips (Dichromothrips corbetti) floral-immersion test; settings: adult thrips, 72 hours after treatment, in comparison with untreated controls
Description: Dichromothrips corbetti adults used for bioassay were obtained from a colony maintained continuously under laboratory conditions. For testing purposes, the test compound was diluted in a 1:1 mixture of acetone:water (vol:vol), plus 0.01% vol/vol Alkamuls® EL 620 surfactant.
Thrips potency of each compound was evaluated by using a floral-immersion technique. Plastic petri dishes were used as test arenas. All petals of individual, intact orchid flowers were dipped into treatment solution and allowed to dry. Treated flowers were placed into individual petri dishes along with—about 20 adult thrips. The petri dishes were then covered with lids. All test arenas were held under continuous light and a temperature of about 28° C. for duration of the assay. After 3 days, the numbers of live thrips were counted on each flower, and along inner walls of each petri dish. The percent mortality was recorded 72 hours after treatment.

[2] = tested on: Southern Armyworm (Spodoptera eridania); assay: Southern armyworm (Spodoptera eridania) spray test on lima bean plants; settings: 96 h, larvae, 4 days after treatment, in comparison with untreated controls
Description: (§1) The active compounds were formulated in cyclohexanone as a 10,000 ppm solution supplied in tubes. The tubes were inserted into an automated electrostatic sprayer equipped with an atomizing nozzle and they served as stock solutions for which lower dilutions were made in 50% acetone:50% water (v/v). A nonionic surfactant (Kinetic®) was included in the solution at a volume of 0.01% (v/v).
(§2) Lima bean plants (variety Sieva) were grown 2 plants to a pot and selected for treatment at the 1st true leaf stage. Test solutions were sprayed onto the foliage by an automated electrostatic plant sprayer equipped with an atomizing spray nozzle. The plants were dried in the sprayer fume hood and then removed from the sprayer. Each pot was placed into perforated plastic bags with a zip closure. About 10 to 11 armyworm larvae were placed into the bag and the bags zipped closed. Test plants were maintained in a growth room at about 25° C. and about 20-40% relative humidity for 4 days, avoiding direct exposure to fluorescent light (24 hour photoperiod) to prevent trapping of heat inside the bags. Mortality and reduced feeding were assessed 4 days after treatment, compared to untreated control plants.

[3] = tested on: Boll Weevil (Anthonomus grandis); assay: Boll weevil (Anthonomus grandis) microtiter plate insect diet test; settings: 120 h, egg and larval mortality after 5 days, in comparison with untreated controls
Description: For evaluating control of boll weevil (Anthonomus grandis) the test unit consisted of 96-well-microtiter plates containing an insect diet and 5-10 A. grandis eggs.
(§3) The compounds were formulated using a solution containing 75% v/v water and 25% v/v DMSO. Different concentrations of formulated compounds were sprayed onto the insect diet at 5 μl, using a custom built micro atomizer, at two replications.
After application, microtiter plates were incubated at about 25±1° C. and about 75±5% relative humidity for 5 days. Egg and larval mortality was then visually assessed.

[4] = tested on: Mediterranean Fruitfly (Ceratitis capitata); assay: Mediterranean fruitfly (Ceratitis capitata) microtiter plate insect diet test; settings: 120 h, egg and larval mortality after 5 days, in comparison with untreated controls
Description: For evaluating control of Mediterranean fruitfly (Ceratitis capitata) the test unit consisted of microtiter plates containing an insect diet and 50-80 C. capitata eggs.
as §3
After application, microtiter plates were incubated at about 28±1° C. and about 80±5% relative humidity for 5 days. Egg and larval mortality was then visually assessed.

[5] = tested on: Cowpea Aphid (Aphis craccivora); assay: Cowpea aphid (Aphis craccivora) spray test on potted cowpea plants; settings: assessed after 72 hours, in comparison with untreated controls
Description: The active compound was dissolved at the desired concentration in a mixture of 1:1 (vol:vol) distilled water:acetone. Surfactant (Alkamuls® EL 620) is added at a rate of 0.1% (vol/vol). The test solution was prepared at the day of use.
Potted cowpea plants were colonized with approximately 50-100 aphids of various stages by manually transferring a leaf tissue cut from infested plant 24 hours before application. Plants were sprayed after the pest population has been recorded. Treated plants were maintained on light carts at about 28° C. Percent mortality was assessed after 72 hours.

[6] = tested on: Diamond Back Moth (Plutella xylostella); assay: Diamond back moth (Plutella xylostella) cabbage leaf dip test; settings: foliar, 3rd instar larvae, 72 hours after treatment, in comparison with untreated controls
Description: The active compound was dissolved at the desired concentration in a mixture of 1:1 (vol:vol) distilled water:acetone. Surfactant (Alkamuls® EL 620) is added at a rate of 0.1% (vol/vol).The test solution was prepared at the day of use.
Leaves of cabbage were dipped in test solution and air-dried. Treated leaves were placed in petri dishes lined with moist filter paper and inoculated with ten 3rd instar larvae. Mortality was recorded 72 hours after treatment. Feeding damages were also recorded using a scale of 0-100%.

[7] = tested on: Colorado Potato Beetle (Leptinotarsa decemlineata); assay: Colorado potato beetle (Leptinotarsa decemlineata) spray test on eggplant foliage; settings: foliar, 96 h, beetle larvae, 4 days after treatment, in comparison with untreated controls
Description: as §1
Eggplants were grown 2 plants to a pot and were selected for treatment at the 1st true leaf stage. Test solutions were sprayed onto the foliage by an automated electrostatic plant sprayer equipped with an atomizing spray nozzle. The plants were dried in the sprayer fume hood and then removed from the sprayer. The treated foliage was then cut and removed from the pot and placed in a Petri dish lined with moistened filter paper. Five beetle larvae were introduced into each Petri dish and the dish was covered by a Petri dish lid. Petri dishes were maintained in a growth room at about 25° C. and about 20-40% relative humidity for 4 days, avoiding direct exposure to fluorescent light (24 hour photoperiod) to prevent trapping of heat inside the dishes. Mortality and reduced feeding were assessed 4 days after treatment, compared to untreated control plants.

[8] = tested on: Vetch Aphid (Megoura viciae); assay: Vetch aphid (Megoura viciae) broad bean leaf disk microtiter test; settings: foliar, 120 h, adult aphids, after 5 days, in comparison with untreated controls
Description: For evaluating control of vetch aphid (Megoura viciae) through contact or systemic means the test unit consisted of 24-well-microtiter plates containing broad bean leaf disks.
The compounds were formulated using a solution containing 75% v/v water and 25% v/v DMSO. Different concentrations of formulated compounds were sprayed onto the leaf disks at 2.5 μl, using a custom built micro atomizer, at two replications.
After application, the leaf disks were air-dried and 5-8 adult aphids placed on the leaf disks inside the microtiter plate wells. The aphids were then allowed to suck on the treated leaf disks and incubated at about 23±1° C. and about 50±5% relative humidity for 5 days. Aphid mortality and fecundity was then visually assessed.

[9] = tested on: Tobacco Budworm (Heliothis virescens); assay: Tobacco budworm (Heliothis virescens) I spray test on cotton plants; settings: 96 h, larvae, 4 days after treatment, in comparison with untreated controls
Description: as §1
as §2, with “Cotton” for “Lima bean”, “plants” for “plants (variety Sieva)”, “cotyledon” for “1st true leaf”, “budworm” for “armyworm”

Cc1cc(Cl)cc(C(=O)N=S2CCCC2)c1NC(=O)c1ccc(C(F)(F)F)cc1-c1ncccc1Cl [Compound 1-7, 5-chloro-2-[[2-(3-chloro-2-pyridyl)-4-(trifluoromethyl)benzoyl]amino]-3-methyl-N-(thiolan-1-ylidene)benzamide]
≥ 75%: mortality at 500 ppm [1] | mortality at 300 ppm [2] | mortality at 2500 ppm [3] | mortality at 2500 ppm [4] | mortality at 300 ppm [5] | mortality at 300 ppm [6] | mortality at 10 ppm [7] | mortality at 2500 ppm [8] | mortality at 2500 ppm [9]
